Source: EP4763838A1, “COMPOUND AND USE THEREOF” (Ocean University of China, priority 2023, dated 2025)

These molecules were tested against T1, androgen receptor (AR) (Homo sapiens, UniProt P10275, T878A) (assay: Reduction of androgen receptor (AR) expression levels in LNCaP cells (Western blot, DC50 and Dmax)). Details: 24 h of treatment, 0.01, 0.1, 1 and 10 µM, α-tubulin internal reference.
T1 construct: endogenous in cells; host or cells: LNCaP
Format: cell-based
Procedure: The human prostate cancer cell line LNCaP cells selected in this experiment were cultured in an RPMI-1640 culture medium containing 10% fetal bovine serum (Gibco, USA) in an incubator under the conditions of 37°C, 5% CO2 and 95% humidity. When the growth density reached 80%, the cells were inoculated into a 6-well plate with 5×10^5 cells per well. After culturing for 24 h, the culture medium was replaced with a culture medium containing the compounds so that the final concentrations of the compounds were 0.01, 0.1, 1 and 10 µM. After 24 h of treatment, the supernatant was removed, the cells were washed twice with PBS, and a RIPA lysis buffer containing a protease inhibitor and a phosphatase inhibitor was added to the cells. After lysis and centrifugation, the total protein extract was obtained. The concentration of the protein in the extract was determined by using the BCA method.
Protein electrophoresis was performed by using SDS-PAGE, followed by electrotransfer at a constant current of 200 mA for 90 min to transfer proteins onto the PVDF membrane. The PVDF membrane was placed in 5% skim milk and blocked for 1 h at room temperature. An anti-Androgen Receptor antibody [EPR1535(2)] (ab133273)(1:10000) was added for incubation overnight at 4°C. The membrane was washed with TBST for 3 times, with 10 min each time. The mixture of the membrane and a secondary antibody were incubated for 60 min at room temperature. The membrane was washed with TBST for 3 times, with 10 min each time. The ECL light-emitting liquid was dropwise added for exposure. Each sample was simultaneously detected using α-tubulin protein as an internal reference. The protein profile was analyzed for grayscale values using analysis software ImageJ. The gray scale correction value of each sample was calculated by using the formula: gray scale correction value = (gray scale value of the target protein/gray scale value of the corresponding internal reference) […] 10^3. Then, the calculated gray scale correction value was compared with a control gray scale correction value to calculate a degradation rate. Then, nonlinear curve fitting was performed on a logarithmic concentration-inhibition rate using Prism to obtain the DC50 and Dmax values of the compound.
Table 14 summarizes the evaluation of protein degraders PRTA-01 to 06 in reducing AR protein expression levels. DC50 represents the concentration of the protein degrader when it induces AR protein degradation to 50% of the initial level, and the level is classified as A (DC50<1 µM), B (DC50 1~10 µM), or C (DC50>10 µM). Dmax represents the proportion of the maximum degree of […] protein degradation induced by the protein degrader to the total AR protein amount, with the level graded as A (Dmax>85%), B (Dmax85-50%), or C (Dmax<50%). Table 14 Evaluation of protein degraders PRTA-01 to 06 in reducing AR protein expression levels

T1 sequence (P10275 whole entry T878A): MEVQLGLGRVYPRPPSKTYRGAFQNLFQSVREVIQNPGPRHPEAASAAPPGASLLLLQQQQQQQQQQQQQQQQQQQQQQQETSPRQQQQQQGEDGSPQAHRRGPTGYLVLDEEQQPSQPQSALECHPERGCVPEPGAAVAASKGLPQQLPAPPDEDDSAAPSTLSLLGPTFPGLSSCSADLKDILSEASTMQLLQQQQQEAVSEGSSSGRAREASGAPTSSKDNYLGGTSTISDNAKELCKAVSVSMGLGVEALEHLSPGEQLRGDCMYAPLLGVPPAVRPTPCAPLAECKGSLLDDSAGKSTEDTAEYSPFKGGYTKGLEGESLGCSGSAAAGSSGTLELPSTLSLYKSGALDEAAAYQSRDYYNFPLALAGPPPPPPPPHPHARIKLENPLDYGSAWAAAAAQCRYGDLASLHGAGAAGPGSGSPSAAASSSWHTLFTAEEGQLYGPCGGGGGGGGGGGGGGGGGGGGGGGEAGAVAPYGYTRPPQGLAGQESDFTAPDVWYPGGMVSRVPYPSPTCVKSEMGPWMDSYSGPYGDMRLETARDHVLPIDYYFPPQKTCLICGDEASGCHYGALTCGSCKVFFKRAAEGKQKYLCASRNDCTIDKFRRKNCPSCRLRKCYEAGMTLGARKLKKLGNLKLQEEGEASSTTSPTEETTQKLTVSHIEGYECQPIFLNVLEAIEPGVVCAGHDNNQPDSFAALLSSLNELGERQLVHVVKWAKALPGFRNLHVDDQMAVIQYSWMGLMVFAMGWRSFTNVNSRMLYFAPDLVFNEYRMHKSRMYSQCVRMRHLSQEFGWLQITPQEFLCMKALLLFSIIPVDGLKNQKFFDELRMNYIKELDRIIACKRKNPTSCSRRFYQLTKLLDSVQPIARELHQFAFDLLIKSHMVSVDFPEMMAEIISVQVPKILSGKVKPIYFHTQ
T1 sequence (Q96SW2 whole entry partner): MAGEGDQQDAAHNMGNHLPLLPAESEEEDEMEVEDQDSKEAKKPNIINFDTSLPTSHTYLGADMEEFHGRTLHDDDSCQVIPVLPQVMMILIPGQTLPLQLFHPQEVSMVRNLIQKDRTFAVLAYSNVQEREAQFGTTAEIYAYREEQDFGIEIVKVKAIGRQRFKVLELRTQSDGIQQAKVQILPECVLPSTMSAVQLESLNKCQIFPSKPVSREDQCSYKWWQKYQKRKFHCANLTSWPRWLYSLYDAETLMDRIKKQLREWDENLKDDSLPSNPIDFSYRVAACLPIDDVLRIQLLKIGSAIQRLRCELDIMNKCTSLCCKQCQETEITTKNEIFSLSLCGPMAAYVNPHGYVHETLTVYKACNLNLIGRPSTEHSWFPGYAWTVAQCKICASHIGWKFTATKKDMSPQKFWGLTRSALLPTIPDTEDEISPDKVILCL

| SMILES | DC50 [nM] | Dmax [%] |
| --- | --- | --- |
| N#Cc1ccc(O[C@H]2CC[C@H](NC(=O)c3ccc(N4CCN(CC5CCN(c6ccc(C7CCC(=O)NC7=O)nn6)CC5)CC4)cc3)CC2)cc1Cl (stereo partly drawn) [PRTA-01] | < 1000 | 50 to 85 |
| N#Cc1ccc(OC2CCC(NC(=O)c3ccc(N4CCC(CN5CCN(c6ccc(C7CCC(=O)NC7=O)nn6)CC5)CC4)nn3)CC2)cc1Cl (stereo not drawn) [PRTA-02] | < 1000 | > 85 |
| N#Cc1ccc(O[C@H]2CC[C@H](NC(=O)c3ccc(N4CCC(CN5CCN(c6ccc(N7CCC(=O)NC7=O)nn6)CC5)CC4)nn3)CC2)cc1Cl [PRTA-03] | < 1000 | > 85 |
| Cc1cc(N2CCN(CC3CCN(c4ccc(C(=O)N[C@H]5CC[C@H](Oc6ccc(C#N)c(Cl)c6)CC5)nn4)CC3)CC2)nnc1C1CCC(=O)NC1=O (stereo partly drawn) [PRTA-04] | 1000 to 10000 | 50 to 85 |
| N#Cc1ccc(O[C@H]2CC[C@H](NC(=O)c3ccc(N4CCC(CN5CC6(C5)CN(c5ccc(C7CCC(=O)NC7=O)nn5)C6)CC4)cc3)CC2)cc1Cl (stereo partly drawn) [PRTA-05] | < 1000 | 50 to 85 |
| N#Cc1ccc(O[C@H]2CC[C@H](NC(=O)c3ccc(N4CCC(n5cc(C#Cc6ccc(C7CCC(=O)NC7=O)nn6)cn5)CC4)cc3)CC2)cc1Cl (stereo partly drawn) [PRTA-06] | < 1000 | > 85 |
